Laboratory results taken from patent publication US9605047B2, “Compositions and methods for treating hypertension” (The Brigham and Women's Hospital, Inc., priority 2012, dated 2017).
Entries after “also recorded” stand apart in the source; their conditions may differ.

What was measured:
eNOS = eNOS activity ([14C] arginine, NOS activity kit) in HPAECs; type: cell-based, human; conditions: ET-1 (10 nM) stimulated HPAECs, without or with aldosterone; n=3
Procedure: eNOS activity. eNOS activity was measured using the NOS activity kit (Cayman) according to the manufacturer's instructions with some modifications. Cells were washed with PBS containing 1 mM EDTA, transferred to a microcentrifuge tube, and centrifuged at 14,000×g at 4° C. for 2 min. The supernatant was decanted and homogenization buffer (250 mM Tris-HCl, pH 7.4, 6 μM BH4, 2 μM flavin adenine dinucleotide, and 2 μM flavin adenine mononucleotide) was added to the cell pellets. […] The samples were then centrifuged at 14,000×g for 30 seconds and radioactivity of the eluant was quantified in a liquid scintillation counter (Beckman-Coulter).

CYP11B2 promoter = assay: Chromatin immunoprecipitation assay, CYP11B2 promoter; type: cell-based, human; conditions: ET-1 10 nM, 24 h; vs V 16.3±9.8; n=3
Procedure: Chromatin immunoprecipitation assay. Chromatin immunoprecipitation assays were performed using the QuikChIP assay (Imgenex) according to the manufacturer's instructions. PCR amplification was performed on the proximal region of the CYP11B2 promoter region containing the gonadotrope-specific element ^51. The primers used were: forward 5′-[…]-3′ (SEQ ID NO:2) and reverse 5′-[…]-3′ (SEQ ID NO: 3). CYP11B2 primers used for PCR were forward: 5′ […]-3′ (SEQ ID NO: 4) and reverse: 5′-[…]-3′ (SEQ ID NO:5).

HPAECs [1] = assay: Aldosterone levels in HPAEC culture medium by enzyme immunoassay; type: cell-based, human; conditions: 24 h, n=4
HPAECs [2] = assay: 3-Nitrotyrosine immunohistochemistry in HPAECs; type: cell-based, human; conditions: V 24.1±3.3, n=5
Procedure: 3-Nitrotyrosine immunohistochemistry. Cells grown to confluence on glass chamber slides were fixed following treatments and anti-3-nitrotyrosine immunohistochemistry (Santa Cruz Biotechnology) was performed using the 3,3′-diaminobenzidine substrate method (Vector laboratories) as described previously.^1

[3] = system: PGC-1α / steroidogenesis factor-1 (SF); assay: Co-immunoprecipitation of PGC-1α with SF in HPAECs; type: cell-based, human; conditions: ET-1 10 nM, 24 h, n=3
Procedure: Co-immunoprecipitation of proteins. Cell monolayers were washed twice with ice-cold PBS and incubated on ice with RIPA buffer supplemented with various protease inhibitors (Millpore). Cells were scraped with a rubber policeman and samples were rotated at 4° C. for 15 min. Lysates were centrifuged at 14,000×g at 4° C. for 15 min and the then pre-cleared with a 50% slurry of Protein G agarose beads (Santa Cruz Biotechnology) mixed with PBS. Following removal of the beads by centrifugation, cell lysates were incubated with an anti-ETB or anti-PGC-1α antibody (Santa Cruz Biotechnology) overnight at 4° C. The immunocomplex was captured by incubating lysates with 50% Protein G agarose bead slurry at 4° C. for 1 h. Beads were collected by pulse centrifugation, resuspended in non-reducing sample buffer, and then boiled for 10 min to dissociate the immunocomplex from the beads. Western analysis was performed with an anti-SF (Santa Cruz) or anti-sulfenic acid (R—SOH) antibody (Millpore) as described above.

HPAECs [4] = assay: Amplex Red assay of hydrogen peroxide levels in HPAECs; type: cell-based, human; conditions: ET-1 10 nM, HPAECs; p=0.43, n=4
Procedure: Human pulmonary artery endothelial cells (HPAECs) (Lonza) (male donors) were grown to confluence using phenol-free EGM-2 medium supplemented with 5% fetal bovine serum at 37° C., 5% CO2. Cells were passaged twice-weekly using 0.5% trypsin/EDTA, and experiments were performed on cells from passages 4-10. Aldosterone (Steraloids) and ET-1 (1-100 nM) (Sigma-Aldrich) were dissolved in dimethylsufloxide (10 nmol/L) and deoxygenated water, respectively, which served as vehicle controls. Cells were treated with aldosterone (10^−−10^−7 mol/L) for 24 h and in selected experiments co-incubated with the mineralocorticoid receptor inhibitor spironolactone (10 μM/l) (Sigma-Aldrich).

[5] = system: CYP11B2 (aldosterone synthase); assay: CYP11B2 protein expression in HPAECs by Western analysis; type: cell-based, human; conditions: 24 h, n=3
Procedure: (§1) Cell culture and treatments. Human pulmonary artery endothelial cells (HPAECs) (Lonza) (male donors) were grown to confluence using phenol-free EGM-2 medium supplemented with 5% fetal bovine serum at 37° C., 5% CO2. Cells were passaged twice-weekly using 0.5% trypsin/EDTA, and experiments were performed on cells from passages 4-10. Aldosterone (Steraloids) and ET-1 (1-100 nM) (Sigma-Aldrich) were dissolved in dimethylsufloxide ([…]) and deoxygenated water, respectively, which served as vehicle controls. Cells were treated with aldosterone (10^−−10^−7 mol/L) for 24 h and in selected experiments co-incubated with the mineralocorticoid receptor inhibitor spironolactone (10 μM/l) (Sigma-Aldrich).
(§2) Immunoblotting. Proteins were size fractionated electrophoretically using SDS-PAGE and transferred to polyvinylidene fluoride membranes. The membranes were incubated with anti-ETA (Santa Cruz Biotechnology), anti-ETB (Santa Cruz Biotechnology), anti-NOX4 (Santa Cruz Biotechnology), anti-p22P^phox (Santa Cruz), anti-eNOS (Cell Signaling), anti-PGC-1α (Santa Cruz Biotechnology), and anti-SF (Santa Cruz Biotechnology) antibodies overnight at 4° C. and visualized using the ECL detection system (Amersham Biosciences). In experiments to assess ETA expression, purified ETA protein (Novus Biological) was loaded to serve as an internal control.

[6] = system: PGC-1α and steroidogenesis factor-1 (SF); assay: PGC-1α and SF protein expression in HPAECs by Western analysis; type: cell-based, human; conditions: for PGC-1α protein expression levels: 24 h, n=3
Procedure: as §1, §2

[7] = system: ETB-dependent NO. generation in HPAECs; assay: NO. metabolites (NO2−, NO3−) in ET-1-stimulated HPAECs; type: cell-based, human
Procedure: Cell culture and treatments. Human pulmonary artery endothelial cells (HPAECs) (Lonza) (male donors) were grown to confluence using phenol-free EGM-2 medium supplemented with 5% fetal bovine serum at 37° C., 5% CO2. Cells were passaged twice-weekly using 0.5% trypsin/EDTA, and experiments were performed on cells from passages 4-10. Aldosterone (Steraloids) and ET-1 (1-100 nM) (Sigma-Aldrich) were dissolved in dimethylsufloxide (10 nmol/L) and deoxygenated water, respectively, which served as vehicle controls. Cells were treated with aldosterone (10^−−10^−7 mol/L) for 24 h and in selected experiments co-incubated with the mineralocorticoid receptor inhibitor spironolactone (10 μM/l) (Sigma-Aldrich).

[8] = system: rats with SU-5416/hypoxia-induced PAH; assay: SU-5416/hypoxia-induced PAH, prevention study with eplerenone; type: in vivo, rat; conditions: SU-5416 (20 mg/kg s.c.) plus chronic hypoxia 21 days vs normal rats; n=5
ETB = target: T1, ETB (Homo sapiens, UniProt P24530); assay: Disulfide bond formation of ETB in transfected COS-7 cells exposed to H2O2; type: cell-based; conditions: H2O2 200 μmol/L for 20 min
T1 construct: host or cells: COS-7
T1 sequence (P24530 27-442): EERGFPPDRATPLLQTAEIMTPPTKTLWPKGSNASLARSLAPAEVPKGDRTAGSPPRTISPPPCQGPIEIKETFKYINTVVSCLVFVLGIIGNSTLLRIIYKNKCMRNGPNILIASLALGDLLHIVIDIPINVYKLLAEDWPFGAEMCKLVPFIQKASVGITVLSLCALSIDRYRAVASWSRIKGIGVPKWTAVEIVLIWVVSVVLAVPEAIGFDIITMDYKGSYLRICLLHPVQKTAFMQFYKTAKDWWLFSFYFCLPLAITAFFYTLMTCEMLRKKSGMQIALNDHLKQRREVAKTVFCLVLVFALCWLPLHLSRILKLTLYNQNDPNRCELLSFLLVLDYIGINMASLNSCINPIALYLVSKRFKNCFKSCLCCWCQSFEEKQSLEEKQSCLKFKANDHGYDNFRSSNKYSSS
Procedure: Western analysis to detect ETB disfulfide bond formation. Western analysis to detect ETB disulfide bond formation was performed as described previously.^7 Briefly, protein extracts from cells were lysed in alkylating buffer containing 0.1 M Tris-HCL, pH 6.8, 1% SDS, 100 mM iodoacetamide, and 100 mM N-ethylmaleimide, and sonicated on ice for 5 min followed by a 30-min incubation at 25° C. Alkylated proteins were then precipitated with acetone. Proteins were resuspended in 50 μl of 0.1 M Tris-HCl, pH 7.4, 1% SDS; and disulfides were reduced with 5 mM tris(2-carboxyethyl)phosphine hydrochloride (TCEP). Following a 20-min incubation at 25° C., TCEP was removed with a Micro Bio-Spin™ column 6 (Bio-Rad), and 1% SDS was added to the eluant. The cysteines previously participating in a disulfide bond, now reduced, were labeled with 1 mM polyethylene glycol-conjugated maleimide (molecular mass 10 kDa) (Fluka). After a 1-h incubation at 25° C., proteins were precipitated with acetone, resuspended in 50 μl of non-reducing SDS electrophoresis buffer, and boiled for 10 min. Protein samples were then size-fractionated electrophoretically using SDS-PAGE, and transferred to a polyvinylidene fluoride membrane. […]

[9] = system: ETB-dependent NO. synthesis in COS-7 cells; assay: ETB-dependent NO2− formation in transfected COS-7 cells after H2O2; type: cell-based, monkey (African green monkey); conditions: COS-7 cells co-expressing WT-eNOS; H2O2 200 μmol/L 60 min, then ET-1 10 nM 10 min; n=4
Procedure: NO. metabolites. Nitrite (NO2^−) and nitrate (NO3^−) were measured in cell culture medium containing 2% fetal bovine serum and L-arginine (1 mmol/l) (Sigma-Aldrich) by 1(H)-naphthotriazole fluorescence (Cayman) as previously reported.^1 To measure NO2^− levels in whole lung tissue, lung specimens were harvested from rats and snap frozen in liquid nitrogen. Samples were thawed, homogenized in PBS (pH 7.4), and centrifuged at 14,000×g at 4° C. for 20 min. The supernatant was ultrafiltered using a 30 kDa molecular weight filter (Millpore), and the eluant was used to measure NO2^− levels according to manufacturer's instructions (Cayman).
Site-directed mutagenesis and transfection. cDNAs encoding wild type (WT) eNOS and WT-ETB from human were cloned into the mammalian expression vector pCMV6 (Origene). The C405A-ETB mutant was purchased from Genewiz (South Plainfield, N.J.). […] After this time, the medium was replaced with Dulbecco's Modified Eagle Medium (Gibco) supplemented with 10% FBS, and experiments were performed after 24 h.

With endothelin-1 [ET-1] the eNOS activity (eNOS) was 18.5±3.5 [^14C] L-citrulline c.p.m./μg protein, the “SF binding to the CYP11B2 promoter” value (CYP11B2 promoter) was 61.6±9.3 arb. units and the “aldosterone levels in the cell culture medium” value (HPAECs [1]; ET-1 1 nM) was 241.1±44.8 % control. For the same molecule, the “aldosterone levels in the cell culture medium” value (HPAECs [1]; ET-1 10 nM) was 283.5±94.7 % control, the “aldosterone levels in the cell culture medium” value (HPAECs [1]; ET-1 100 nM) was 396.0±116.5 % control and the “levels of 3-nitrotyrosine” value (HPAECs [2]) was 31.2±3.2 arb. units. For the same molecule, the “association between PGC-1α and SF (co-immunoprecipitation)” value [3] was 1260±104 arb. units, the “H2O2 levels compared to V-treated cells” value (HPAECs [4]) was “no effect” and the “CYP11B2 protein expression levels” value ([5]; ET-1 1 nM) was 157.3±27.5 % control. The “CYP11B2 protein expression levels” value ([5]; ET-1 10 nM) was 180.4±13.4 % control, the “CYP11B2 protein expression levels” value ([5]; ET-1 100 nM) was 234.8±4.3 % control and the “PGC-1α protein expression levels” value ([6]; ET-1 1 nM) was 176.5±52.8 % control. The “PGC-1α protein expression levels” value ([6]; ET-1 10 nM) was 224.7±68.1 % control, the “PGC-1α protein expression levels” value ([6]; ET-1 100 nM) was 296.7±145.8 % control and the SF protein levels ([6]; ET-1, 24 h) was “no effect”. For the same molecule, the “NO2^− generation” value ([7]; ET-1 10 nM, maximum effect at 10 min, HPAECs, vs V 29.4±3.6, n=3) was 139.4±31.8 μM/μg protein, the “total NO. metabolite (NOx: NO2^−+NO3^−) formation” value ([7]; ET-1 (10 nM) stimulated HPAECs, without or with aldosterone, n=3) was 157.9±12.7 μM/μg protein and the “NO2^−/NO3^− ratio compared to V” value ([7]; ET-1 alone, HPAECs) was “did not affect”.

With `Cc1cc(C)c(/C=C2\C(=O)Nc3ccccc32)[nH]1` [SU-5416] the “increase in plasma aldosterone levels” value [8] was 418%.

B1: WT-ETB: wild type human ETB expressed in COS-7 cells (protein)
chain: EERGFPPDRATPLLQTAEIMTPPTKTLWPKGSNASLARSLAPAEVPKGDRTAGSPPRTISPPPCQGPIEIKETFKYINTVVSCLVFVLGIIGNSTLLRIIYKNKCMRNGPNILIASLALGDLLHIVIDIPINVYKLLAEDWPFGAEMCKLVPFIQKASVGITVLSLCALSIDRYRAVASWSRIKGIGVPKWTAVEIVLIWVVSVVLAVPEAIGFDIITMDYKGSYLRICLLHPVQKTAFMQFYKTAKDWWLFSFYFCLPLAITAFFYTLMTCEMLRKKSGMQIALNDHLKQRREVAKTVFCLVLVFALCWLPLHLSRILKLTLYNQNDPNRCELLSFLLVLDYIGINMASLNSCINPIALYLVSKRFKNCFKSCLCCWCQSFEEKQSLEEKQSCLKFKANDHGYDNFRSSNKYSSS
In the case of B1, the “disulfide bond formation of ETB” value (ETB) is reported as “formation of one or two disulfide bonds; also recorded: formation of 1 or 2 disulfide bonds” and the “decrease of ET-1-stimulated NO2^− formation by H2O2 compared to V-treated cells” value [9] is reported as 78.0%.

B2: C405A-ETB (protein)
chain: EERGFPPDRATPLLQTAEIMTPPTKTLWPKGSNASLARSLAPAEVPKGDRTAGSPPRTISPPPCQGPIEIKETFKYINTVVSCLVFVLGIIGNSTLLRIIYKNKCMRNGPNILIASLALGDLLHIVIDIPINVYKLLAEDWPFGAEMCKLVPFIQKASVGITVLSLCALSIDRYRAVASWSRIKGIGVPKWTAVEIVLIWVVSVVLAVPEAIGFDIITMDYKGSYLRICLLHPVQKTAFMQFYKTAKDWWLFSFYFCLPLAITAFFYTLMTCEMLRKKSGMQIALNDHLKQRREVAKTVFCLVLVFALCWLPLHLSRILKLTLYNQNDPNRCELLSFLLVLDYIGINMASLNSCINPIALYLVSKRFKNCFKSCLCCWAQSFEEKQSLEEKQSCLKFKANDHGYDNFRSSNKYSSS
With B2 the “disulfide bond formation of ETB” value (ETB) was “resistant to the formation of disulfide bonds; also recorded: resistant to disulfide bond formation” and the “decrease of ET-1-stimulated NO2^− formation by H2O2 compared to V-treated cells” value [9] was 45.0%.
